Literature values in PubChem BioAssay AID1259409 (Chemical Carcinogenesis Research Information System (CCRIS), 2018).
Where a SMILES comes first, the peptide text is derived from it.

Test system: rodent chemically induced tumor inhibition, incidence and multiplicity
Test: CCRIS tumor inhibitor studies

CCCCCCCCCCCCC/C=C/[C@@H](O)[C@@H](N)CO
tumour outcome (control, treated, inhibition, significance) (Carcinogen: 7,12-DIMETHYLBENZ[A]ANTHRACENE, 57-97-6, Dose [Inhibitor]: 0, 0.01 UMOL IN 0.2 ML ACETONE 2/WK FOR 15 WK APPLIED 30 MIN PRIOR TO EACH PROMOTER DOSE (STUDY DURATION: 50 WK), Route [Inhibitor]: DERMAL, Species: MOUSE, Strain/Sex: SENCAR/FEMALE, Target Tissue: Type of Lesion: SKIN: CARCINOMA, Dose [Carcinogen]: 10 NMOL ONCE, Promoter: 12-O-TETRADECANOYLPHORBOL-13-ACETATE, 16561-29-8): 87%, 77%, 11%, not significant | tumour outcome (control, treated, inhibition, significance) (Carcinogen: 7,12-DIMETHYLBENZ[A]ANTHRACENE, 57-97-6, Dose [Inhibitor]: 0, 0.01 UMOL IN 0.2 ML ACETONE 2/WK FOR 15 WK APPLIED 30 MIN PRIOR TO EACH PROMOTER DOSE (STUDY DURATION: 50 WK), Route [Inhibitor]: DERMAL, Species: MOUSE, Strain/Sex: SENCAR/FEMALE, Target Tissue: Type of Lesion: SKIN: PAPILLOMA, Dose [Carcinogen]: 10 NMOL ONCE, Promoter: 12-O-TETRADECANOYLPHORBOL-13-ACETATE, 16561-29-8): 94%, 88%, 6%, not significant | tumour outcome (control, treated, inhibition, significance) (Carcinogen: 7,12-DIMETHYLBENZ[A]ANTHRACENE, 57-97-6, Dose [Inhibitor]: 0, 0.05 UMOL IN 0.2 ML ACETONE 2/WK FOR 15 WK APPLIED 30 MIN PRIOR TO EACH PROMOTER DOSE (STUDY DURATION: 50 WK), Route [Inhibitor]: DERMAL, Species: MOUSE, Strain/Sex: SENCAR/FEMALE, Target Tissue: Type of Lesion: SKIN: CARCINOMA, Dose [Carcinogen]: 10 NMOL ONCE, Promoter: 12-O-TETRADECANOYLPHORBOL-13-ACETATE, 16561-29-8): 87%, 82%, 6%, not significant | tumour outcome (control, treated, inhibition, significance) (Carcinogen: 7,12-DIMETHYLBENZ[A]ANTHRACENE, 57-97-6, Dose [Inhibitor]: 0, 0.05 UMOL IN 0.2 ML ACETONE 2/WK FOR 15 WK APPLIED 30 MIN PRIOR TO EACH PROMOTER DOSE (STUDY DURATION: 50 WK), Route [Inhibitor]: DERMAL, Species: MOUSE, Strain/Sex: SENCAR/FEMALE, Target Tissue: Type of Lesion: SKIN: PAPILLOMA, Dose [Carcinogen]: 10 NMOL ONCE, Promoter: 12-O-TETRADECANOYLPHORBOL-13-ACETATE, 16561-29-8): 94%, 91%, 3%, not significant | tumour outcome (control, treated, inhibition, significance) (Carcinogen: 7,12-DIMETHYLBENZ[A]ANTHRACENE, 57-97-6, Dose [Inhibitor]: 0, 0.5 UMOL IN 0.2 ML ACETONE 2/WK FOR 15 WK APPLIED 30 MIN PRIOR TO EACH PROMOTER DOSE (STUDY DURATION: 50 WK), Route [Inhibitor]: DERMAL, Species: MOUSE, Strain/Sex: SENCAR/FEMALE, Target Tissue: Type of Lesion: SKIN: CARCINOMA, Dose [Carcinogen]: 10 NMOL ONCE, Promoter: 12-O-TETRADECANOYLPHORBOL-13-ACETATE, 16561-29-8): 87%, 84%, 3%, not significant | tumour outcome (control, treated, inhibition, significance) (Carcinogen: 7,12-DIMETHYLBENZ[A]ANTHRACENE, 57-97-6, Dose [Inhibitor]: 0, 0.5 UMOL IN 0.2 ML ACETONE 2/WK FOR 15 WK APPLIED 30 MIN PRIOR TO EACH PROMOTER DOSE (STUDY DURATION: 50 WK), Route [Inhibitor]: DERMAL, Species: MOUSE, Strain/Sex: SENCAR/FEMALE, Target Tissue: Type of Lesion: SKIN: PAPILLOMA, Dose [Carcinogen]: 10 NMOL ONCE, Promoter: 12-O-TETRADECANOYLPHORBOL-13-ACETATE, 16561-29-8): 94%, 85%, 10%, not significant | tumour outcome (control, treated, inhibition, significance) (Carcinogen: 7,12-DIMETHYLBENZ[A]ANTHRACENE, 57-97-6, Dose [Inhibitor]: 0, 10 UMOL IN 0.2 ML ACETONE 2/WK FOR 20 WK APPLIED 30 MIN PRIOR TO EACH PROMOTER DOSE (STUDY DURATION: 50 WK), Route [Inhibitor]: DERMAL, Species: MOUSE, Strain/Sex: SENCAR/FEMALE, Target Tissue: Type of Lesion: SKIN: CARCINOMA, Dose [Carcinogen]: 10 NMOL ONCE, Promoter: 12-O-TETRADECANOYLPHORBOL-13-ACETATE, 16561-29-8): 47%, 56%, -19%, not significant | tumour outcome (control, treated, inhibition, significance) (Carcinogen: 7,12-DIMETHYLBENZ[A]ANTHRACENE, 57-97-6, Dose [Inhibitor]: 0, 10 UMOL IN 0.2 ML ACETONE 2/WK FOR 20 WK APPLIED 30 MIN PRIOR TO EACH PROMOTER DOSE (STUDY DURATION: 50 WK), Route [Inhibitor]: DERMAL, Species: MOUSE, Strain/Sex: SENCAR/FEMALE, Target Tissue: Type of Lesion: SKIN: PAPILLOMA, Dose [Carcinogen]: 10 NMOL ONCE, Promoter: 12-O-TETRADECANOYLPHORBOL-13-ACETATE, 16561-29-8): 93%, 96%, -3%, not significant

N[C@@H](CCC(=O)O)C(=O)N[C@@H](Cc1c[nH]c2ccccc12)C(=O)O (H-Glu-Trp-OH)
tumour outcome (control, treated, inhibition, significance) (Carcinogen: NONE, Dose [Inhibitor]: 5 UG 1X/D 5 D/WK FOR 12 MONTHS (STUDY DURATION: 1200 D), Route [Inhibitor]: SUBCUTANEOUS, Species: RAT, Strain/Sex: LIO/FEMALE, Target Tissue: Type of Lesion: TUMORS): 12/31 (38.7%), 10/40 (25.0%), 35%, not significant

CC1(C)O[C@@H]2C[C@H]3[C@@H]4C[C@H](F)C5=CC(=O)C=C[C@]5(C)[C@@]4(F)[C@@H](O)C[C@]3(C)[C@]2(C(=O)CO)O1
tumour outcome (control, treated, inhibition, significance) (Carcinogen: 3-METHYLCHOLANTHRENE, 56-49-5, Dose [Inhibitor]: 1 UG IN ACETONE 2/WK FOR 23 WK BEGINNING 1 WK POST CARCINOGEN DOSE (STUDY DURATION: 24 WK), Route [Inhibitor]: DERMAL, Species: MOUSE, Strain/Sex: CD-1/MALE, Target Tissue: Type of Lesion: SKIN: TUMOR, Dose [Carcinogen]: 600 UG IN ACETONE ONCE, Promoter: NONE USED): 10%, 5%, 50%, not calculated | tumour outcome (control, treated, inhibition, significance) (Carcinogen: 3-METHYLCHOLANTHRENE, 56-49-5, Dose [Inhibitor]: 10 UG IN ACETONE 2/WK FOR 23 WK BEGINNING 1 WK POST CARCINOGEN DOSE (STUDY DURATION: 24 WK), Route [Inhibitor]: DERMAL, Species: MOUSE, Strain/Sex: CD-1/MALE, Target Tissue: Type of Lesion: SKIN: TUMOR, Dose [Carcinogen]: 600 UG IN ACETONE ONCE, Promoter: NONE USED): 10%, 45%, -350%, not calculated | tumour outcome (control, treated, inhibition, significance) (Carcinogen: 7,12-DIMETHYLBENZ[A]ANTHRACENE, 57-97-6, Dose [Inhibitor]: 0, 0.5 NMOL IN 200 µL ACETONE APPLIED 30 MIN PRIOR TO EACH PROMOTER DOSE 2/WK FOR 25 WK BEGINNING 1 WK POST CARCINOGEN D, Route [Inhibitor]: DERMAL, Species: MOUSE, Strain/Sex: CD-1/FEMALE, Target Tissue: Type of Lesion: SKIN: PAPILLOMA, Dose [Carcinogen]: 200 NMOL IN 200 µL ACETONE ONCE, Promoter: 12-O-TETRADECANOYLPHORBOL-13-ACETATE, 16561-29-8): 90%, 40%, 56%, not calculated | tumour outcome (control, treated, inhibition, significance) (Carcinogen: 7,12-DIMETHYLBENZ[A]ANTHRACENE, 57-97-6, Dose [Inhibitor]: 0, 0.5 NMOL IN 200 µL ACETONE APPLIED 30 MIN PRIOR TO EACH PROMOTER DOSE 2/WK FOR 25 WK BEGINNING 1 WK POST CARCINOGEN D, Route [Inhibitor]: DERMAL, Species: MOUSE, Strain/Sex: CD-1/FEMALE, Target Tissue: Type of Lesion: SKIN: PAPILLOMA, Dose [Carcinogen]: 200 NMOL IN 200 µL ACETONE ONCE, Promoter: MIREX, 2385-85-5): 100%, 97%, 3%, not significant | tumour outcome (control, treated, inhibition, significance) (Carcinogen: 7,12-DIMETHYLBENZ[A]ANTHRACENE, 57-97-6, Dose [Inhibitor]: 0, 2 NMOL IN 200 µL ACETONE APPLIED 30 MIN PRIOR TO EACH PROMOTER DOSE 2/WK FOR 25 WK BEGINNING 1 WK POST CARCINOGEN DOS, Route [Inhibitor]: DERMAL, Species: MOUSE, Strain/Sex: CD-1/FEMALE, Target Tissue: Type of Lesion: SKIN: PAPILLOMA, Dose [Carcinogen]: 200 NMOL IN 200 µL ACETONE ONCE, Promoter: 12-O-TETRADECANOYLPHORBOL-13-ACETATE, 16561-29-8): 90%, 11%, 88%, not calculated | tumour outcome (control, treated, inhibition, significance) (Carcinogen: 7,12-DIMETHYLBENZ[A]ANTHRACENE, 57-97-6, Dose [Inhibitor]: 0, 2 NMOL IN 200 µL ACETONE APPLIED 30 MIN PRIOR TO EACH PROMOTER DOSE 2/WK FOR 25 WK BEGINNING 1 WK POST CARCINOGEN DOS, Route [Inhibitor]: DERMAL, Species: MOUSE, Strain/Sex: CD-1/FEMALE, Target Tissue: Type of Lesion: SKIN: PAPILLOMA, Dose [Carcinogen]: 200 NMOL IN 200 µL ACETONE ONCE, Promoter: MIREX, 2385-85-5): 100%, 92%, 8%, not calculated
